From PMC5485171 (Diabetes, Obesity & Metabolism, 2017)

Test system: patients with type 2 diabetes
Test: Adverse events
Format: in vivo, human
[1] = 28 weeks, as‐treated, number (%) of patients, n = 181 / 122
[2] = 28 weeks, most common AEs (≥5% of patients)

**Q.** `N[C@@H](CC(=O)N1CCn2c(nnc2C(F)(F)F)C1)Cc1cc(F)c(F)cc1F` [Sitagliptin, sitagliptin] was tested. Which “symptoms of hypoglycaemia, number of recipients” value (28 weeks) did it give?
**A.** The value was 7 recipients.

**Q.** What about the “AEs leading to withdrawal” value [1] of the same molecule?
**A.** The value was 0 (0.0) n (%).

**Q.** What about the “Cardiovascular events (adjudicated)” value [1] of the same molecule?
**A.** Its value is 0 (0.0) n (%).

**Q.** And the “Gastrointestinal AEs” value [1]?
**A.** Its value is 9 (7.4) n (%).

**Q.** What about the “Gastrointestinal AEs: Diarrhea” value [1] of the same molecule?
**A.** The value was 2 (1.6) n (%).

**Q.** And the “Gastrointestinal AEs: Dyspepsia” value [1]?
**A.** The value was 1 (0.8) n (%).

**Q.** And the “Gastrointestinal AEs: Nausea” value [1]?
**A.** The value was 2 (1.6) n (%).

**Q.** What about the “Gastrointestinal AEs: Vomiting” value [1] of the same molecule?
**A.** Its value is 0 (0.0) n (%).

**Q.** What about the “Hypoglycaemia: Major” value [1] of the same molecule?
**A.** Its value is 0 (0.0) n (%).

**Q.** And the “Injection‐site‐related AEs” value [1]?
**A.** The value was 0 (0.0) n (%).

**Q.** And the “Injection‐site‐related AEs: Bruising” value [1]?
**A.** Its value is 0 (0.0) n (%).

**Q.** What about the “Injection‐site‐related AEs: Induration” value [1] of the same molecule?
**A.** The value was 0 (0.0) n (%).

**Q.** What about the “Injection‐site‐related AEs: Nodules” value [1] of the same molecule?
**A.** The value was 0 (0.0) n (%).

**Q.** What about the “Injection‐site‐related AEs: Pruritus” value [1] of the same molecule?
**A.** Its value is 0 (0.0) n (%).

**Q.** What about the “Pancreatic cancer (adjudicated)” value [1] of the same molecule?
**A.** The value was 0 (0.0) n (%).

**Q.** What about the “Pancreatitis (adjudicated)” value [1] of the same molecule?
**A.** The value was 0 (0.0) n (%).

**Q.** What about the Renal failure [1] of the same molecule?
**A.** The Renal failure was 0 (0.0) n (%).

**Q.** And the “Serious AEs” value [1]?
**A.** The value was 0 (0.0) n (%).

**Q.** What about the Symptoms of hypoglycaemia [1] of the same molecule?
**A.** Its Symptoms of hypoglycaemia is 7 (5.7) n (%).

**Q.** What about the “Thyroid neoplasms (adjudicated)” value [1] of the same molecule?
**A.** Its value is 0 (0.0) n (%).

**Q.** What about the “nasopharyngitis, proportion of patients” value [2] of the same molecule?
**A.** The value was 0.0%.

**Q.** And the “nausea, proportion of patients” value [2]?
**A.** The value was 1.6%.

**Q.** What about the “Hypoglycaemia: Minor” value (28 weeks, symptoms and glucose <54 mg/dL, number (%) of patients, n = 181 / 122) of the same molecule?
**A.** The value was 1 (0.8) n (%).

**Q.** And the “AEs reported, proportion of recipients” value (28‐week treatment period)?
**A.** Its value is 32.8%.

**Q.** What about the “Any AE” value (28‐week treatment period, as‐treated, exenatide 2.0 mg QW sc (n = 181), sitagliptin 100 mg once daily oral (n = 122), number (%) of patients) of the same molecule?
**A.** The value was 40 (32.8) n (%).
